Patent publication US8586611B2 (priority 2005, dated 2013)

How the values were obtained:
Assay type in all cases: in vivo
[1] = test system: Plasmopara viticola; test: Test B: grape downy mildew, spray 24 h after inoculation (disease rating, 100 = 100% disease control); details: spray 24 h after inoculation, compounds without asterisk (not 40 or 10 ppm)
Source text: (§1) The test compounds were first dissolved in acetone in an amount equal to 3% of the final volume and then suspended at the desired concentration (in ppm) in acetone and purified water (50/50 mix by volume) containing 250 ppm of the surfactant Trem® 014 (polyhydric alcohol esters). The resulting test suspensions were then used in tests A-E. Spraying a 200 ppm test suspension to the point of run-off on the test plants was the equivalent of a rate of 500 g/ha.
Grape seedlings were inoculated with a spore suspension of Plasmopara viticola (the causal agent of grape downy mildew) and incubated in a saturated atmosphere at 20° C. for 24 h. After a short drying period, the test suspension was sprayed to the point of run-off on the grape seedlings and then moved to a growth chamber at 20° C. for 5 days, after which the test units were placed back into a saturated atmosphere at 20° C. for 24 h. Upon removal, disease ratings were made.
(§2) Results for Tests A-F are given in Table A. In the table, a rating of 100 indicates 100% disease control and a rating of 0 indicates no disease control (relative to the controls). A dash (-) indicates no test results.

[2] = test system: Phytophthora infestans; test: whole plant or invertebrate; details: tomato late blight; spray 17 h after inoculation; compounds without asterisk (not 40 or 10 ppm)
[3] = test system: Erysiphe graminis f. sp. tritici; test: Test E: wheat powdery mildew, spray the day before inoculation (disease rating, 100 = 100% disease control); details: spray the day before inoculation, compounds without asterisk (not 40 or 10 ppm)
Source text: as §1
The test suspension was sprayed to the point of run-off on wheat seedlings. The following day the seedlings were inoculated with a spore dust of Erysiphe graminis f. sp. tritici, (the causal agent of wheat powdery mildew) and incubated in a growth chamber at 20° C. for 7 days, after which disease ratings were made.
as §2

[4] = test system: Phytophthora infestans; test: whole plant or invertebrate; details: tomato late blight; spray the day before inoculation; compounds without asterisk (not 40 or 10 ppm)

Compound | Test B disease rating (100 = 100% disease control, 0 = no disease control) [1] [%] | Test D disease rating (100 = 100% disease control, 0 = no disease control) [2] [%] | Test E disease rating (100 = 100% disease control, 0 = no disease control) [3] [%] | Test C disease rating (100 = 100% disease control, 0 = no disease control) [4] [%]
CC(c1cccnc1)N(C)C(=O)c1csc(C2CCN(C(=O)Cc3cccc(C(F)(F)F)c3)CC2)n1 (centres unmarked) [compound 66] | 2 | 42 | 0 | 54
C[C@H](c1ccccc1)N(C)C(=O)c1csc(C2CCN(C(=O)Cn3cc(Br)cn3)CC2)n1 [compound 71] | 34 | 0 | 0 | 74
Cc1ccn(CC(=O)N2CCC(c3nc(C(=O)N(C)[C@H](C)c4ccccc4)cs3)CC2)n1 [compound 72] | 1 | 66 | 0 | 91
Cc1cnn(CC(=O)N2CCC(c3nc(C(=O)N(C)[C@H](C)c4ccccc4)cs3)CC2)c1 [compound 73] | 2 | 9 | 0 | 75
CC(c1ccncc1)N(C)C(=O)c1csc(C2CCN(C(=O)Cc3cccc(C(F)(F)F)c3)CC2)n1 (centres unmarked) [compound 76] | 0 | 0 | 0 | 79
CCOc1ccccc1CC(=O)N1CCC(c2nc(C(=O)N(C)[C@H](C)c3ccccc3)cs2)CC1 [compound 78] | 100 | 46 | 0 | 78
CCOc1cccc(CC(=O)N2CCC(c3nc(C(=O)N(C)[C@H](C)c4ccccc4)cs3)CC2)c1 [compound 79] | 82 | 0 | 0 | 77
C[C@H](c1ccccc1)N(C)C(=O)c1csc(C2CCN(C(=O)Cc3cccnc3)CC2)n1 [compound 83] | 14 | 0 | 0 | 31
C[C@H](c1ccccc1)N(C)C(=O)c1csc(C2CCN(C(=O)Cc3ccncc3)CC2)n1 [compound 84] | 41 | 0 | 0 | 44
CCCCC(c1ccccc1)N(C)C(=O)c1csc(C2CCN(C(=O)Cc3cc(C)ccc3C)CC2)n1 (centres unmarked) [compound 85] | 99 | 9 | 32 | 99
C[C@H](c1ccccc1)N(C)C(=O)c1csc(C2CCN(C(=O)Cc3cccs3)CC2)n1 [compound 88] | 43 | 0 | 0 | 33
COC(=O)Cc1ccccc1CC(=O)N1CCC(c2nc(C(=O)N(C)[C@H](C)c3ccccc3)cs2)CC1 [compound 90] | 17 | 9 | 0 | 26
Cc1nc(CC(=O)N2CCC(c3nc(C(=O)N(C)[C@H](C)c4ccccc4)cs3)CC2)cs1 [compound 91] | 16 | 79 | 0 | 99
C[C@H](c1ccccc1)N(C)C(=O)c1csc(C2CCN(C(=O)Cc3cc(C(C)(C)C)no3)CC2)n1 [compound 93] | 9 | 0 | 0 | 26
Cc1ccc(C)c(CC(=O)N2CCC(c3nc(C(=O)N(C)C(c4ccccc4)C(C)C)cs3)CC2)c1 (centres unmarked) [compound 96] | 98 | 49 | 0 | 100
Cc1ccc(C)c(CC(=O)N2CCC(c3nc(C(=O)N(C)C(CC(C)C)c4ccccc4)cs3)CC2)c1 (centres unmarked) [compound 97] | 53 | 0 | 0 | 86
Cc1ccc(C)c(CC(=O)N2CCC(c3nc(C(=O)N(C)C4CCc5ccccc5C4)cs3)CC2)c1 (centres unmarked) [compound 98] | 0 | 0 | 0 | 84
Cc1ccc(C)c(CC(=O)N2CCC(c3nc(C(=O)N(C)C4CCCc5ccccc54)cs3)CC2)c1 (centres unmarked) [compound 99] | 97 | 99 | 0 | 100
Cc1ccc(C)c(CC(=O)N2CCC(c3nc(C(=O)N(C)C4CCc5ccccc54)cs3)CC2)c1 (centres unmarked) [compound 100] | 94 | 99 | 0 | 100
Cc1cc(C)n(CC(=O)N2CCC(c3nc(C(=O)N(C)[C@H](C)c4ccccc4)cs3)CC2)c1 [compound 101] | 0 | 8 | 0 | 70
Cc1ccc(C)c(CC(=O)N2CCC(c3nc(C(=O)N(C)[C@H](C)c4ncc(Cl)cc4Cl)cs3)CC2)c1 [compound 111] | 96 | 37 | 98 | 99
Cc1ccc(C)c(CC(=O)N2CCC(c3nc(C(=O)N(C)C(C)c4cc(C)sc4C)cs3)CC2)c1 (centres unmarked) [compound 112] | 93 | 99 | 95 | 100
Cc1ccc(C)c(CC(=O)N2CCC(c3nc(C(=O)N(C)C(C)c4cc(C)oc4C)cs3)CC2)c1 (centres unmarked) [compound 113] | 0 | 31 | 0 | 97
CC[C@H](c1ccccc1)N(C)C(=O)c1csc(C2CCN(C(=O)Cc3cc(C(F)(F)F)ccc3Cl)CC2)n1 [compound 114] | 99 | 99 | 0 | 100
CC[C@H](c1ccccc1)N(C)C(=O)c1csc(C2CCN(C(=O)Cc3ccccc3OC)CC2)n1 [compound 115] | 100 | 99 | 0 | 100
CC[C@H](c1ccccc1)N(C)C(=O)c1csc(C2CCN(C(=O)Cc3cccc(C)c3)CC2)n1 [compound 116] | 100 | 87 | 0 | 49
